Experimental data from patent US9849129B2, “Sodium channel blockers for skin disorders” (PARION SCIENCES, INC., priority 2015, dated 2017).

Experiments:
Bronchial cells = assay: Apical disappearance assay (epithelial absorption); format: in vitro ADME; conditions: for Epithelial Uptake Rate: apical surface, initial concentration 10 μM
Method: Bronchial cells (dog, human, sheep, or rodent cells) are seeded at a density of 0.25×10^6/cm^2 on a porous Transwell-Col collagen-coated membrane with a growth area of 1.13 cm^2 grown at an air-liquid interface in hormonally defined media that promotes a polarized epithelium. From 12 to 20 days after development of an air-liquid interface (ALI) the cultures are expected to be >90% ciliated, and mucins will accumulate on the cells. To ensure the integrity of primary airway epithelial cell preparations, the transepithelial resistance (Rt) and transepithelial potential differences (PD), which are indicators of the integrity of polarized nature of the culture, are measured. Human cell systems are preferred for studies of rates of absorption from apical surfaces. […] A series of samples (5 μl volume per sample) is collected at various time points, including 0, 5, 20, 40, 90 and 240 minutes. Concentrations are determined by measuring intrinsic fluorescence of each sodium channel blocker using a Fluorocount Microplate Flourometer or HPLC. Quantitative analysis employs a standard curve generated from authentic reference standard materials of known concentration and purity. Data analysis of the rate of disappearance is performed using nonlinear regression, one phase exponential decay (Prism V 3.0).

mouse corneas = assay: Confocal microscopy of drug penetration in mouse corneas; conditions: one hour after application to corneal epithelium, 37° C. (FIG. 2)
Method: Corneal cells were labeled using calcein-AM dye by incubating with corneas for 45 minutes at 37° C. in DMEM media. […] Serial x-y images were obtained one hour post-drug addition by confocal microscopy. […] Pharmacological Effects and Mechanism of Action of the Drug in Animals

[1] = molecular target: T1, airway epithelial sodium currents (epithelial sodium channel, ENaC) (UniProt A0A8I3MKE6+A0A8I3Q679+Q95165); assay: Sodium channel blocking activity: short circuit current (ISC) in airway epithelial monolayers in Ussing chambers; conditions: for IC50: read-out: Potency of Sodium Channel Blockade (IC50), lumenal addition, airway epithelial monolayers (human, dog, sheep or rodent cells, not specified)
T1 sequence (A0A8I3MKE6 1-646): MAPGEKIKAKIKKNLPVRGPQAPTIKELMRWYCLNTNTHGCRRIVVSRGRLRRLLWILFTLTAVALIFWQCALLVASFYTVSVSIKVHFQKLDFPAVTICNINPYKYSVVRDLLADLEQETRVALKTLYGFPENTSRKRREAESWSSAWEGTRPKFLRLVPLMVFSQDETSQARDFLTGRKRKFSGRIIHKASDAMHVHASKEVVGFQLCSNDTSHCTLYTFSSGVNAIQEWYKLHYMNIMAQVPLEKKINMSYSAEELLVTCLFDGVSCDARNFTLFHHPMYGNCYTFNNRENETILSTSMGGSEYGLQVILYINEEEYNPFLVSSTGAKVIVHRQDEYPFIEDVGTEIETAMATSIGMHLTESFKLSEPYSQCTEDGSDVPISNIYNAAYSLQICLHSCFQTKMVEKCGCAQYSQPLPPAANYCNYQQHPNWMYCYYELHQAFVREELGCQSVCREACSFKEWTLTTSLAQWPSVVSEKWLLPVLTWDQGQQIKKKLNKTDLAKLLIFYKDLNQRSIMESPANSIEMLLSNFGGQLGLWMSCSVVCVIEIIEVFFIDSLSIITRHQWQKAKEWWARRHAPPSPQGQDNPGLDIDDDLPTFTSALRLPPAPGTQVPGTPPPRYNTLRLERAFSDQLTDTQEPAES
T1 sequence (A0A8I3Q679 1-649): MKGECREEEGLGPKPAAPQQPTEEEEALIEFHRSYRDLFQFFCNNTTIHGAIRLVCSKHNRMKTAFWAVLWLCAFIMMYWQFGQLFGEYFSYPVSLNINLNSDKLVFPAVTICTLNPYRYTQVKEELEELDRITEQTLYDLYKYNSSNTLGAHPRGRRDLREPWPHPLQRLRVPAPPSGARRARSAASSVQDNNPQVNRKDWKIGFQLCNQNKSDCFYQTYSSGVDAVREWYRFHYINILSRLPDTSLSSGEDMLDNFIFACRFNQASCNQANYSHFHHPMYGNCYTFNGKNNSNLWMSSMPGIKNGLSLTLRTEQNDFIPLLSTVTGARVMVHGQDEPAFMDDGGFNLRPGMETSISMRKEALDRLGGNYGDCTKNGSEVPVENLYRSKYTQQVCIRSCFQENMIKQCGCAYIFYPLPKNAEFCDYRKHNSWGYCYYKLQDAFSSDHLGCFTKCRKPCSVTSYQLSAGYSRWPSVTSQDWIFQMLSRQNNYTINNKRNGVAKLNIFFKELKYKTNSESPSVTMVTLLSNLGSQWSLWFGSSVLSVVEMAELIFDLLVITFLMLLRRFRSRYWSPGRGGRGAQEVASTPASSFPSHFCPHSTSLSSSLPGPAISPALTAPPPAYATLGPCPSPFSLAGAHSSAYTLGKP
T1 sequence (Q95165 1-641): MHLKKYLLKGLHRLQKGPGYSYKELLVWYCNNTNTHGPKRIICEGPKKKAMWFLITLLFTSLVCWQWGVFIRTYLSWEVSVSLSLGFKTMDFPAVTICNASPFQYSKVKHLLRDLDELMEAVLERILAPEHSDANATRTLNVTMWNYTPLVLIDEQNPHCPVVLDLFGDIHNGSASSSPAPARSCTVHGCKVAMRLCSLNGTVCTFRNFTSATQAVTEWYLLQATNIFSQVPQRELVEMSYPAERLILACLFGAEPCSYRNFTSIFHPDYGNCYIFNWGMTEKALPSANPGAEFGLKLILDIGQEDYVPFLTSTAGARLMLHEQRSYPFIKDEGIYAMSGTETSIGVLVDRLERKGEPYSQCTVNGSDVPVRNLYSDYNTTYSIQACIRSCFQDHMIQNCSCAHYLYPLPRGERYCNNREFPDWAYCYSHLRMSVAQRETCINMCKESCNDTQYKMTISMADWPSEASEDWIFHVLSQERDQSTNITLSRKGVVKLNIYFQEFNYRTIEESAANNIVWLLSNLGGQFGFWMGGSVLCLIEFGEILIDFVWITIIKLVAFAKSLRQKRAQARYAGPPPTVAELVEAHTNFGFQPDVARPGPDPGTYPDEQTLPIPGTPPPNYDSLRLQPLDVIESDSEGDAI
Method: One assay used to assess mechanism of action and/or potency of the compounds of the present invention involves the determination of lumenal drug inhibition of airway epithelial sodium currents measured under short circuit current (ISC) using airway epithelial monolayers mounted in Ussing chambers. Cells obtained from freshly excised human, dog, sheep or rodent airways are seeded onto porous 0.4 micron Snapwell™ Inserts (CoStar), cultured at air-liquid interface (ALI) conditions in hormonally defined media, and assayed for sodium transport activity (ISC) while bathed in Krebs Bicarbonate Ringer (KBR) in Ussing chambers. […] All drugs are prepared in dimethyl sulfoxide as stock solutions at a concentration of 1×10^−2 M and stored at 20° C. […] After the maximal concentration (5×10^−5 M) is administered, the lumenal bath is exchanged three times with fresh, drug-free KBR solution, and the resultant ISC measured after each wash for approximately 5 minutes in duration. Reversibility is defined as the percent return to the baseline value for sodium current after the third wash. All data from the voltage clamps are collected via a computer interface and analyzed off-line.
Dose-effect relationships for all compounds are considered and analyzed by the Prism 3.0 program.

[2] = tested on: primary human airway epithelial cells; assay: Confocal microscopy assay of amiloride congener uptake, airway epithelial cells; format: cell-based; conditions: 10 uM apical, 60 minute incubation (FIG. 1)
Method: FIG. 1. […] Benzamil or Compound 2 (10 uM each) were added to the apical compartment of primary human airway epithelial cells. After a 60 minute incubation, the compounds were visualized by confocal microscopy.
Virtually all amiloride-like molecules fluoresce in the ultraviolet range. This property of these molecules may be used to directly measure cellular update using x-z confocal microscopy. […] Serial x-z images are obtained with time and the magnitude of fluorescence accumulating in the cellular compartment is quantitated and plotted as a change in fluorescence versus time.
Primary HBE cells were placed in an apparatus designed to position transwell membrane supports on a confocal microscope stage (Leica, Wetzlar, Germany). The glycocalyx and cilia were labeled with 3 μM wheat germ agglutinin-fluorescein (Molecular Probes, Eugene, Oreg.) for 45 mm at 37° C. to visualize the apical domain of HBE cell cultures. The autofluorescence of the cells was acquired prior to apical compound addition. Images were acquired with a 63× water immersion lens in the x-z plane. Benzamil was added to the mucosal compartment (10 μM; 350 μl), and images were recorded serially from 0 to 5 mm.

**Q.** `N=C(N)NC(=O)c1nc(Cl)c(N)nc1N` [Amiloride, reference compound] was tested. Which “Epithelial Uptake Rate” value (Bronchial cells) did it give?
**A.** 2 nM/cm^2/min

**Q.** What about the “Corneal penetration seen by confocal microscopy” value (mouse corneas) of the same compound?
**A.** can fully penetrate the cornea

**Q.** Which results are given for `NC(=NCc1ccccc1)NC(=O)c1nc(Cl)c(N)nc1N` [Benzamil]?
**A.** Epithelial Uptake Rate (Bronchial cells): 6.6 nM/cm^2/min; Fold Decrease in Apical Absorption (Relative to Amiloride) (Bronchial cells): 0.3; IC50 [1]: 46 nM; Cellular penetration/uptake seen by confocal microscopy [2]: largely concentrated inside cells; Cellular penetration/uptake seen by confocal microscopy ([2]; listed as benzamil): rapidly taken up by the cells

**Q.** How did the IC50 [1] turn out when `N=C(NCCCCc1ccc(OCC(O)CO)cc1)NC(=O)c1nc(Cl)c(N)nc1N` (stereo not drawn) [Compound 1] was run?
**A.** 7.4 nM

**Q.** And the “Fold Increase in Potency (Relative to Amiloride)” value [1]?
**A.** 105

**Q.** Which “Epithelial Uptake Rate” value (Bronchial cells) does the source give for `N=C(N)NCCOc1ccc(CCCCNC(=N)NC(=O)c2nc(Cl)c(N)nc2N)cc1` [Compound 2] here?
**A.** 0.2 nM/cm^2/min

**Q.** And the “Fold Decrease in Apical Absorption (Relative to Amiloride)” value (shortened to “Fold Decrease … (Relative to Amiloride)”) (Bronchial cells)?
**A.** 10.0

**Q.** What about the IC50 [1] of the same compound?
**A.** 10.2 nM

**Q.** And the “Fold Increase in Potency (Relative to Amiloride)” value [1]?
**A.** 77

**Q.** What about the “Cellular penetration/uptake seen by confocal microscopy” value [2] of the same compound?
**A.** concentrated on the exterior cell surface

**Q.** Which “Corneal penetration seen by confocal microscopy” value (mouse corneas) does the source give for `N=C(N)NCCCC[C@@H](N)C(=O)NCCCN(CCCNC(=O)[C@H](N)CCCCNC(=N)N)CCOc1ccc(CCCCNC(=N)NC(=O)c2nc(Cl)c(N)nc2N)cc1` [Compound 3] here?
**A.** remains associated with the apical (epithelial) surface

**Q.** What about the IC50 [1] of the same compound?
**A.** 3.2 nM

**Q.** And the “Fold Increase in Potency (Relative to Amiloride)” value [1]?
**A.** 244

**Q.** `N=C(NCCCCc1ccc(OCCN(CCCc2ccccc2)C[C@H](O)[C@@H](O)[C@H](O)[C@H](O)CO)cc1)NC(=O)c1nc(Cl)c(N)nc1N` [Compound 5] was tested. Which “Epithelial Uptake Rate” value (Bronchial cells) did it give?
**A.** 0.2 nM/cm^2/min

**Q.** And the “Fold Decrease … (Relative to Amiloride)” value (Bronchial cells)?
**A.** 10.0

**Q.** And the IC50 [1]?
**A.** 6.6 nM

**Q.** And the “Fold Increase in Potency (Relative to Amiloride)” value [1]?
**A.** 118

**Q.** Which results are given for `N=C(NCCCCc1ccc(OCCN(CCCc2cccc3ccccc23)C[C@H](O)[C@@H](O)[C@H](O)[C@H](O)CO)cc1)NC(=O)c1nc(Cl)c(N)nc1N` [Compound 6]?
**A.** IC50 [1]: 5.9 nM; Fold Increase in Potency (Relative to Amiloride) [1]: 186

**Q.** `NC(=Nc1ccccc1)NC(=O)c1nc(Cl)c(N)nc1N` [Phenamil, reference compound] was tested. Which “Epithelial Uptake Rate” value (Bronchial cells) did it give?
**A.** 9.0 nM/cm^2/min

**Q.** And the “Fold Decrease … (Relative to Amiloride)” value (Bronchial cells)?
**A.** 0.2

**Q.** And the IC50 [1]?
**A.** 116 nM

**Q.** What about the “Fold Increase in Potency (Relative to Amiloride)” value [1] of the same compound?
**A.** 6.5
